Assay results published in the supplement of paper PMC11451515.

System: NOMO1
Assay: cell viability relative to DMSO control; higher = less cytotoxic
Conditions: 48 h
Outline: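 Library compounds in DMSO were pin-dosed into 1536-well plates (5 μl) holding NOMO1 or SEM (500 cells/well) or P12-Ichikawa (1000 cells/well) leukemia cells, across an 11-point threefold series of 47 μM to 0.79 nM. Each cell line had been adapted for at least four passages in each medium. CellTiter-Glo One luminescence was read after 48 h at 37°C. Viability is the per-plate percentage relative to DMSO wells, with cell-free wells as background.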

[1] = HPLM + 10% dialyzed FBS, 0.000781 µM
[2] = HPLM + 10% dialyzed FBS, 0.00234 µM
[3] = HPLM + 10% dialyzed FBS, 0.00702 µM
[4] = HPLM + 10% dialyzed FBS, 0.0211 µM
[5] = HPLM + 10% dialyzed FBS, 0.0632 µM
[6] = HPLM + 10% dialyzed FBS, 0.19 µM
[7] = HPLM + 10% dialyzed FBS, 0.569 µM
[8] = HPLM + 10% dialyzed FBS, 1.71 µM
[9] = HPLM + 10% dialyzed FBS, 5.12 µM
[10] = HPLM + 10% dialyzed FBS, 15.4 µM
[11] = HPLM + 10% dialyzed FBS, 46.1 µM
[12] = RPMI 5 mM glucose + 10% FBS, 0.000781 µM
[13] = RPMI 5 mM glucose + 10% FBS, 0.00234 µM
[14] = RPMI 5 mM glucose + 10% FBS, 0.00702 µM
[15] = RPMI 5 mM glucose + 10% FBS, 0.0211 µM
[16] = RPMI 5 mM glucose + 10% FBS, 0.0632 µM
[17] = RPMI 5 mM glucose + 10% FBS, 0.19 µM
[18] = RPMI 5 mM glucose + 10% FBS, 0.569 µM
[19] = RPMI 5 mM glucose + 10% FBS, 1.71 µM
[20] = RPMI 5 mM glucose + 10% FBS, 5.12 µM
[21] = RPMI 5 mM glucose + 10% FBS, 15.4 µM
[22] = RPMI 5 mM glucose + 10% FBS, 46.1 µM
[23] = RPMI 5 mM glucose + 10% dialyzed FBS, 0.000781 µM
[24] = RPMI 5 mM glucose + 10% dialyzed FBS, 0.00234 µM
[25] = RPMI 5 mM glucose + 10% dialyzed FBS, 0.00702 µM
[26] = RPMI 5 mM glucose + 10% dialyzed FBS, 0.0211 µM
[27] = RPMI 5 mM glucose + 10% dialyzed FBS, 0.0632 µM
[28] = RPMI 5 mM glucose + 10% dialyzed FBS, 0.19 µM
[29] = RPMI 5 mM glucose + 10% dialyzed FBS, 0.569 µM
[30] = RPMI 5 mM glucose + 10% dialyzed FBS, 1.71 µM
[31] = RPMI 5 mM glucose + 10% dialyzed FBS, 5.12 µM
[32] = RPMI 5 mM glucose + 10% dialyzed FBS, 15.4 µM
[33] = RPMI 5 mM glucose + 10% dialyzed FBS, 46.1 µM

SMILES	cell viability [1] [%]	cell viability [2] [%]	cell viability [3] [%]	cell viability [4] [%]	cell viability [5] [%]	cell viability [6] [%]	cell viability [7] [%]	cell viability [8] [%]	cell viability [9] [%]	cell viability [10] [%]	cell viability [11] [%]	cell viability [12] [%]	cell viability [13] [%]	cell viability [14] [%]	cell viability [15] [%]	cell viability [16] [%]	cell viability [17] [%]	cell viability [18] [%]	cell viability [19] [%]	cell viability [20] [%]	cell viability [21] [%]	cell viability [22] [%]	cell viability [23] [%]	cell viability [24] [%]	cell viability [25] [%]	cell viability [26] [%]	cell viability [27] [%]	cell viability [28] [%]	cell viability [29] [%]	cell viability [30] [%]	cell viability [31] [%]	cell viability [32] [%]	cell viability [33] [%]
C[C@@H](Oc1ccc2[nH]nc(/C=C/c3cnn(CCO)c3)c2c1)c1c(Cl)cncc1Cl	99.5	102	98.9	93.9	99.9	89.7	86	86.4	70.9	38.4	41.3	94.6	108	89.2	86	80.9	83.6	89.3	76.3	74.2	40	33.9	82.9	92.3	89	85.2	92.8	99.1	87.4	73.5	80.9	40.9	34.9
Cc1ccnc(N[S+](=O)([O-])c2ccc(NC(=O)Nc3ccc([S+](=O)([O-])Nc4nccc(C)n4)cc3)cc2)n1	100	99.6	99.3	101	107	20.8	37.1	7.33	6.39	4.89	2.2	97.6	83.9	83.5	90.1	86.6	36	53.1	7.07	5.88	4.91	2.42	79.3	77.8	88	85.2	86.5	46.8	56	6.77	5.66	4.24	2.51
CC/C(=C(\c1ccccc1)c1ccc(OCCN(C)C)cc1)c1ccccc1	95	122	107	99.5	119	113	113	92.4	111	92.5	49.1	94.8	102	102	115	103	101	94.1	99	96.1	105	76.7	93.1	99.2	104	103	115	110	114	99.8	117	81	34.7
COc1c(C)c2c(c(O)c1C/C=C(\C)CCC(=O)OCCN1CCOCC1)C(=O)OC2	90.3	91.9	110	122	112	99.8	107	86.3	60.5	43.9	31.9	98.5	108	98	92.7	95	110	107	122	62.9	38.8	33.6	102	108	102	111	104	115	98.9	89	64.7	49.5	42.2
Cc1ccccc1C(C(=O)NC1CCCC1)N(C(=O)Cn1cnc2ccccc21)c1cccc(F)c1 (configuration not stated)												118	114	127	105	125	107	113	121	108	110	99.8											
CC(C)C[C@@H](C(=O)N[C@H](C(=O)OC1CCCC1)c1ccccc1)[C@H](O)C(=O)NO	107	114	112	119	126	107	104	122	103	96.2	33.6	111	102	117	117	103	107	103	99.3	99	92.6	13	114	114	122	122	100	119	102	118	106	91.2	16
CC1(C)CCC(=C(\C1)C2=CC=C(Cl)C=C2)/CN3CCN(CC3)C4=CC(=C(C=C4)C(=O)N[S+]([O-])(=O)C5=CC=C(NCC6CCOCC6)C(=C5)[N+]([O-])=O)OC7=CN=C8[NH]C=CC8=C7	103	110	95.8	91.9	113	71.8	63.2	55.3	55.1	45.8	39	93.7	84.4	99.3	89.4	85.4	76.2	61.3	62.7	63.2	43	33.6	97	95	96.2	76.7	66.4	57.7	49	38.2	42.9	28	23.9
O=C(O)c1nn(Cc2ccc(Cl)cc2Cl)c2ccccc12	112	116	106	100	78.3	83.8	71.2	61.8	92.3	76.5	69.9	86.1	76.6	78.1	83.8	96.7	81.7	75.5	83.8	85.4	79.5	74	79.9	89.7	97.4	94.2	91.1	85.6	73.8	75.3	83.2	81.2	76.1
